From paper PMC8955485, “Journey on VX-809-Based Hybrid Derivatives towards Drug-like F508del-CFTR Correctors: From Molecular Modeling to Chemical Synthesis and Biological Assays” (Pharmaceuticals, 2022)

Experiments:
F508del-CFTR [1] = molecular target: T1, F508del-CFTR (Homo sapiens, UniProt P13569, DEL508-508); assay: Western blot analysis of CFTR expression pattern (C band/B band ratio); format: cell-based; parameters: expressed in transfected cells; conditions: F508del-CFTR/HS-YFP CFBE41o- cells; 24 h; 50 nM and 1 µM; versus DMSO
Excerpt: We then biochemically estimated the rescue of the trafficking defect by analyzing the electrophoretic mobility of mutant CFTR protein. In Western blots, CFTR protein can be detected as two bands B and C, of approximately 150 and 170 kDa, respectively. Band B corresponds to immature, partially glycosylated CFTR, while band C corresponds to the mature fully glycosylated CFTR. In cells expressing wild-type CFTR protein, the prevalent form is band C, while the main form in cells expressing F508del-CFTR is band B, in agreement with the severe trafficking defect caused by this mutation (Figure 8). To estimate the effect of our molecules on CFTR expression pattern, we treated F508del-CFTR/HS-YFP expressing CFBE41o-cells for 24 h with test compounds 9b, 9g, and 9j (50 nM and 1 µM) VX-809 as a positive control or DMSO as a vehicle alone.
The next day, cells were lysed and the obtained lysates were subjected to SDS-PAGE followed by Western blotting (Figure 8A). Western blot images were analyzed with ImageJ software. CFTR bands, analyzed as ROI, were quantified in each lane after normalization for GAPDH as a loading control. […]
Supernatant protein concentration was calculated using the BCA assay (Euroclone, Milan, Italy). For each sample, 10 μg of total proteins was resolved in 4–20% gradient Criterion TGX precast gels, transferred to nitrocellulose membranes (using a Trans-Blot Turbo system; Bio-Rad, Hercules, CA, USA), and analyzed by Western blotting. Proteins were detected using the antibodies described above and subsequently visualized by chemiluminescence using the SuperSignal West Femto Substrate (Thermo Fisher Scientific, Waltham, MA, USA). […] Images were analyzed with ImageJ software (NIH). Bands were analyzed as ROI, normalized against the GAPDH loading control.
Figure 8 Biochemical analysis of the F508del-CFTR expression pattern: (A). […] Quantification of the C band/B band ratio in experiments as in (A). […]

F508del-CFTR [2] = molecular target: T1, F508del-CFTR; assay: HS-YFP functional assay for F508del-CFTR correctors in CFBE41o- cells; format: cell-based; parameters: expressed in transfected cells; conditions: CFBE41o- cells stably expressing F508del-CFTR and HS-YFP; 24 h incubation; stimulation with forskolin 20 µM plus VX-770 1 µM
Description: The ability of these compounds to correct the basic defects related to F508del mutant was evaluated on immortalized CFBE41o-bronchial epithelial cells stably expressing F508del-CFTR and the halide sensitive yellow fluorescent protein (HS-YFP).
The measurements of the rate of HS-YFP quenching caused by iodide influx allowed us to determine the activity of F508del-CFTR, after incubation with the compounds, as cited. Activity was then compared to that of cells treated with the corrector VX-809 (1 µM) or with vehicle alone (DMSO).
Within the novel third series of hybrids herein proposed, based on their potency and efficacy in terms of CFTR rescue, we selected six compounds and determined the dose–response relationships (Figure 6). To this aim, F508del-CFTR expressing CFBE41o-cells were treated for 24 h with our hybrids 9b, 9f, 9g, 9h, 9j, and 9y and then mutant CFTR activity was measured by using the YFP functional assay (see Materials and Methods section for details).
Immortalized bronchial epithelial CFBE41o-cells with stable co-expression of the halide-sensitive yellow fluorescent protein (HS-YFP) and of F508del-CFTR were cultured using MEM medium supplemented with 10% fetal calf serum, 100 U/mL penicillin, 2 mM L-glutamine, and […] streptomycin.
CFBE41o-cells co-expressing mutants CFTR and HS-YFP were plated (50,000 cells/well) on clear-bottom 96-well black microplates (Corning Life Sciences, Acton, MA) and grown at 37 °C in 5% CO2 for 24 h. For the corrector assay, CFBE41o-cells were treated for further 24 h with compounds as indicated. The following day, prior to the assay, the culture medium was removed and cells were stimulated for 30 min at 37 °C with 60 µL PBS (containing 137 mM NaCl, 2.7 mM KCl, 8.1 mM Na2HPO4, 1.5 mM KH2PO4, 1mM CaCl2, and 0.5 mM MgCl2) plus forskolin (20 µM) and VX-770 (1 µM).
Microplates containing CFBE41o-cells were then transferred to a plate reader (FluoStar Galaxy; BMG Labtech, Offenburg, Germany) equipped with excitation (HQ500/20X: 500 ± 10 nm) and emission (HQ535/30M: 535 ± 15 nm) filters for YFP (Chroma Technology, Brattleboro, VT, USA). During the assay fluorescence was measured continuously for 14 s with 2 s before and 12 s after injection of an iodide containing solution (165 µL of a modified PBS containing I^- instead of Cl^-; final I^- concentration in the well: 100 mM).
Fluorescence data were normalized for the initial value and fluorescence quenching rate following I^- influx, were determined by fitting the final 10 s of data for each well with an exponential function to extrapolate initial slope (dF/dt).
To evaluate the dose–response relationships, activity slopes obtained for each compound at the different concentrations were fitted with the Hill equation using the Igor software (WaveMetrics) to extrapolate EC50, maximal effect, and Hill coefficient.

T1 sequence (P13569 with tags, fused parts or gaps DEL508-508): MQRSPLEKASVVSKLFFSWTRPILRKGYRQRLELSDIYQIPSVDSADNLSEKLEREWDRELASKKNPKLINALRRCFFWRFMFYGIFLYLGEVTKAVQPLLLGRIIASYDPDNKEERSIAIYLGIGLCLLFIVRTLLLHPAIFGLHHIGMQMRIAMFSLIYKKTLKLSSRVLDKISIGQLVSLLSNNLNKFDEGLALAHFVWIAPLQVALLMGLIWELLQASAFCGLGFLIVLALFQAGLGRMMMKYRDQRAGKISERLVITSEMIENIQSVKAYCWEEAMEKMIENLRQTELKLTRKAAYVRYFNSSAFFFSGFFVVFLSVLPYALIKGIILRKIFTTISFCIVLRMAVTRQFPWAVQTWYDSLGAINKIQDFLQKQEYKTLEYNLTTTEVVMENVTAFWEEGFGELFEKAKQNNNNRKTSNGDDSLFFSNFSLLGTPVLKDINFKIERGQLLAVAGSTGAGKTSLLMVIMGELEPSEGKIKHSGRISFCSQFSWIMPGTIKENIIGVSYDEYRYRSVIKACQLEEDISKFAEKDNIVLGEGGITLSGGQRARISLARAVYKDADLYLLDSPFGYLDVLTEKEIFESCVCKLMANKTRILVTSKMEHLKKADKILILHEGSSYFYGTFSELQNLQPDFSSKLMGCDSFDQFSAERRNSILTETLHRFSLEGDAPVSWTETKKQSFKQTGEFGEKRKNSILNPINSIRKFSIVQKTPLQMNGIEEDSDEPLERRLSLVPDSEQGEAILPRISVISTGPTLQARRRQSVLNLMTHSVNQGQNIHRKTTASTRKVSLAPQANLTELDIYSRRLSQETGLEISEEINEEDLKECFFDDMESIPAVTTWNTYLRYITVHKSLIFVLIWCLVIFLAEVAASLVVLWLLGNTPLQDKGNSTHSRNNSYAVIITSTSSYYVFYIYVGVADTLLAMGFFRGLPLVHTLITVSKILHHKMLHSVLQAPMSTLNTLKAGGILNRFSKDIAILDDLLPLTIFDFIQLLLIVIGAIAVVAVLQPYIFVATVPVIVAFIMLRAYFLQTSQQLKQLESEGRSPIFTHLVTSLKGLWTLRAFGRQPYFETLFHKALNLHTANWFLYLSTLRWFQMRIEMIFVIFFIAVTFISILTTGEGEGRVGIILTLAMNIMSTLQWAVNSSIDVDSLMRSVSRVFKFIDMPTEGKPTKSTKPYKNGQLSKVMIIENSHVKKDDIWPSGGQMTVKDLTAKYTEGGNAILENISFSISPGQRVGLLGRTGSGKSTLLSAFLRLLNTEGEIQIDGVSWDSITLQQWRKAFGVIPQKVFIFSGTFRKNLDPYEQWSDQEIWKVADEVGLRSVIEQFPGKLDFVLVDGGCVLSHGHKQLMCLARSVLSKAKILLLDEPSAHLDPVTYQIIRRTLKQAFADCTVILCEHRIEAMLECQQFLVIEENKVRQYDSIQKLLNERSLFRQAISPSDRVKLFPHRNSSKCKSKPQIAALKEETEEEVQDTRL

Row | Structure (SMILES) | C band/B band ratio (F508del-CFTR [1]) | EC50 (F508del-CFTR [2]) [nM]
1 | COc1cccc(-c2nc(NC(=O)C3(c4ccc5c(c4)OCO5)CC3)sc2C(=O)c2ccc(OC(F)(F)F)cc2)c1 [Compound 9j] | significant enhancement | 37
2 | COc1ccc(-c2nc(NC(=O)C3(c4ccc5c(c4)OCO5)CC3)sc2C(=O)c2ccc(N3CCCC3)cc2)cc1 [Compound 9g] | significant enhancement | 33
